Measurements taken from publication doi:10.1101/2021.10.07.463234v2 (biorxiv, 2021).
Where a name gives a salt, the structure may show the parent alone.

These molecules were tested against SARS-CoV-2 Mac1 (Severe acute respiratory syndrome coronavirus 2, UniProt P0DTD1) (assay: biochemical). Conditions: 100 µM; inhibitor.
In the case of COc1cc2nccc(Oc3ccc(NC(=O)C4(C(=O)Nc5ccc(F)cc5)CC4)cc3)c2cc1OC [Cabozantinib malate (XL184)], the “%inhibition” value is reported as 0%. With COc1ccc(C[C@@H]2c3cc(OC)c(OC)cc3CC[N@+]2(C)CCC(=O)OCCCCCOC(=O)CC[N@@+]2(C)CCc3cc(OC)c(OC)cc3[C@H]2Cc2ccc(OC)c(OC)c2)cc1OC [Atracurium Besylate] the “%inhibition” value was 4.976%. For COc1cc(Nc2ncc(F)c(Nc3ccc4c(n3)N(COP(=O)(O)O)C(=O)C(C)(C)O4)n2)cc(OC)c1OC [Fostamatinib (R788)], the “%inhibition” value was 0%. With COC(=O)c1ccc2c(C(=Nc3ccc(N(C)C(=O)CN4CCN(C)CC4)cc3)c3ccccc3)c(O)[nH]c2c1 [Nintedanib Ethanesulfonate Salt] the “%inhibition” value was 8.812%. For CC1=NN(c2ccc(C)c(C)c2)C(=O)/C1=N\Nc1cccc(-c2cccc(C(=O)O)c2)c1O [Eltrombopag Olamine], the “%inhibition” value was 18.42%. CCN(CCO)CCCC(C)Nc1ccnc2cc(Cl)ccc12 (centres unmarked) [Hydroxychloroquine Sulfate] was tested, and the “%inhibition” value was 0%. In the case of N#CC[C@H](C1CCCC1)n1cc(-c2ncnc3[nH]ccc23)cn1 [S-Ruxolitinib (INCB018424)], the “%inhibition” value is reported as 18.93%. In the case of Cc1cn(-c2cc(NC(=O)c3ccc(C)c(Nc4nccc(-c5cccnc5)n4)c3)cc(C(F)(F)F)c2)cn1 [Nilotinib (AMN-107)], the “%inhibition” value is reported as 40.49%. COc1ccc2c(c1)c(CC(=O)O)c(C)n2C(=O)c1ccc(Cl)cc1 [Indomethacin] was tested, and the “%inhibition” value was 39.29%. For CC[C@H]1OC(=O)[C@H](C)[C@@H](O[C@H]2C[C@@](C)(OC)[C@@H](O)[C@H](C)O2)[C@H](C)[C@@H](O[C@@H]2O[C@H](C)C[C@H](N(C)C)[C@H]2O)[C@](C)(O)C[C@@H](C)CN(C)[C@H](C)[C@@H](O)[C@]1(C)O [Azithromycin Dihydrate], the “%inhibition” value was 2.079%. CCN(CC)C(=S)SSC(=S)N(CC)CC [Disulfiram] was tested, and the “%inhibition” value was 0%.

Same assay, conditions: read-out: %inhibition
Molecule CC1=CC(=O)c2ccccc2C1=O [Menadione] has an inhibition at 100 µM of 1.18%. Work on C#Cc1cccc(Nc2ncnc3cc(OC)c(OCCCCCCC(=O)NO)cc23)c1 [CUDC-101] yielded an inhibition at 100 µM of 6.86%. For CCn1nc(C(=O)O)c(=O)c2cc3c(cc21)OCO3 [Cinoxacin], the inhibition at 100 µM was 0.626%. In the case of C[N+]1(C)[C@@H]2C[C@@H](OC(=O)[C@H](CO)c3ccccc3)C[C@H]1[C@@H]1O[C@@H]12 [Methscopolamine], the inhibition at 100 µM is reported as 0%. Work on C[N+]1(C)CCC(=C(c2ccccc2)c2ccccc2)CC1 [Diphemanil Methylsulfate] yielded an inhibition at 100 µM of 0%. C/C(=C\c1csc(C)n1)[C@@H]1C[C@@H]2O[C@]2(C)CCC[C@H](C)[C@H](O)[C@@H](C)C(=O)C(C)(C)[C@@H](O)CC(=O)O1 [Patupilone (EPO906, Epothilone B)] gave an inhibition at 100 µM of 19.2%. With CCCCCCCCCCCCCCCCOc1nc2ccc(C)cc2c(=O)o1 [Cetilistat] the inhibition at 100 µM was 8.35%. In the case of Cc1cc(C#N)cc(C)c1Oc1nc(Nc2ccc(C#N)cc2)nc(N)c1Br [Etravirine (TMC125)], the inhibition at 100 µM is reported as 5.29%. CN(C)CCOC(C)(c1ccccc1)c1ccccn1 (centres unmarked) [Doxylamine Succinate] showed an inhibition at 100 µM of 4.4%. N[C@@H](C(=O)N[C@@H]1C(=O)N2C(C(=O)O)=C(Cl)CS[C@H]12)c1ccccc1 [Cefaclor] gave an inhibition at 100 µM of 0%. CCC(=O)OCC(=O)[C@@]1(OC(=O)CC)[C@@H](C)C[C@H]2[C@@H]3CCC4=CC(=O)C=C[C@]4(C)[C@@]3(F)[C@@H](O)C[C@@]21C [Betamethasone Dipropionate] gave an inhibition at 100 µM of 5.5%. For CCCC1O[C@@H]2C[C@H]3[C@@H]4CCC5=CC(=O)C=C[C@]5(C)[C@H]4[C@@H](O)C[C@]3(C)[C@]2(C(=O)CO)O1 (some centres unmarked) [Budesonide], the inhibition at 100 µM was 12.3%. CCCCC[C@](C)(O)/C=C/[C@@H]1[C@@H](C/C=C\CCCC(=O)O)[C@@H](O)C[C@H]1O [Carboprost] was tested, and the inhibition at 100 µM was 17.6%. In the case of CCCCC(=O)N(Cc1ccc(-c2ccccc2-c2nnn[nH]2)cc1)[C@H](C(=O)O)C(C)C [Valsartan], the inhibition at 100 µM is reported as 31.1%. Molecule CCC1=C(C)CN(C(=O)NCCc2ccc(S(=O)(=O)NC(=O)N[C@H]3CC[C@H](C)CC3)cc2)C1=O [Glimepiride] has an inhibition at 100 µM of 22.5%. Work on Cc1ccc(C)c(OCCCC(C)(C)C(=O)O)c1 [Gemfibrozil] yielded an inhibition at 100 µM of 45.1%. Clc1ccc(C(Cn2ccnc2)OCc2ccc(Sc3ccccc3)cc2)c(Cl)c1 (centres unmarked) [Fenticonazole Nitrate] showed an inhibition at 100 µM of 0%. Work on CCOC(=O)c1ccc(C#Cc2ccc3c(c2)C(C)(C)CCS3)nc1 [Tazarotene] yielded an inhibition at 100 µM of 0%. Cc1cccc(Nc2ccncc2S(=O)(=O)NC(=O)NC(C)C)c1 [Torsemide] gave an inhibition at 100 µM of 15.1%. COc1cc(O)c(C(=O)c2ccccc2)cc1S(=O)(=O)O [Sulisobenzone] showed an inhibition at 100 µM of 4.13%. COc1ccc([C@H]2CNC(=O)C2)cc1OC1CCCC1 [S- (+)-Rolipram] showed an inhibition at 100 µM of 0%. For Nc1ncnc2c1ncn2[C@@H]1O[C@H](CO)[C@@H](O)[C@@H]1O [Vidarabine monohydrate], the inhibition at 100 µM was 9.49%. Cc1nccn1CCC(C(N)=O)(c1ccccc1)c1ccccc1 [Imidafenacin] was tested, and the inhibition at 100 µM was 8.33%. Cn1cc(C(=O)[C@@H]2CCc3[nH]cnc3C2)c2ccccc21 [Ramosetron Hydrochloride] showed an inhibition at 100 µM of 0%. Work on CO/N=C(\C(=O)N[C@@H]1C(=O)N2C(C(=O)O)=C(COC(C)=O)CS[C@H]12)c1csc(N)n1 [Cefotaxime sodium] yielded an inhibition at 100 µM of 0.981%. COc1ccc(-n2nc(C(N)=O)c3c2C(=O)N(c2ccc(N4CCCCC4=O)cc2)CC3)cc1 [Apixaban] was tested, and the inhibition at 100 µM was 0%. Work on Cc1ccc(=O)n(-c2ccccc2)c1 [Pirfenidone] yielded an inhibition at 100 µM of 15.4%. CC(=O)Nc1cccc(-n2c(=O)n(C3CC3)c(=O)c3c(Nc4ccc(I)cc4F)n(C)c(=O)c(C)c32)c1 [Trametinib (GSK1120212)] showed an inhibition at 100 µM of 3.49%. CC(=O)OCC(CCn1cnc2cnc(N)nc21)COC(C)=O [Famciclovir] showed an inhibition at 100 µM of 0%. Molecule CC1Cc2ccccc2N1NC(=O)c1ccc(Cl)c(S(N)(=O)=O)c1 (centres unmarked) [Indapamide] has an inhibition at 100 µM of 36.3%. With C#CC1(O)CC[C@H]2[C@@H]3CCC4=CC(=O)CC[C@@H]4[C@H]3CC[C@@]21CC (some centres unmarked) [Norgestrel] the inhibition at 100 µM was 0%. Cn1ncc(Cl)c1-c1cc(C(=O)N[C@H](CN)Cc2ccc(F)c(F)c2)oc1Cl [Uprosertib (GSK2141795)] showed an inhibition at 100 µM of 0%. Molecule CCCC(=O)Nc1ncnc2c1ncn2[C@@H]1O[C@@H]2COP(=O)(O)O[C@H]2[C@H]1OC(=O)CCC [Dibutyryl-cAMP (Bucladesine)] has an inhibition at 100 µM of 4.86%. With COC(=O)N(C)c1c(N)nc(-c2nn(Cc3ccccc3F)c3ncccc23)nc1N [Riociguat (BAY 63-2521)] the inhibition at 100 µM was 21.9%. In the case of CCOCCn1c(C2CCN(CCc3ccc(C(C)(C)C(=O)O)cc3)CC2)nc2ccccc21 [Bilastine], the inhibition at 100 µM is reported as 0%. N#CC1(c2ccc(NC(=O)c3cccnc3NCc3ccncc3)cc2)CCCC1 [Apatinib?mesylate] gave an inhibition at 100 µM of 0%. With COc1ccc(CN2CCNCC2)c(OC)c1OC [Trimetazidine dihydrochloride] the inhibition at 100 µM was 0%. CN(C)[C@@H]1C(O)=C(C(N)=O)C(=O)[C@@]2(O)C(O)=C3C(=O)c4c(O)ccc(Cl)c4[C@@](C)(O)[C@H]3C[C@@H]12 [Chlortetracycline HCl] was tested, and the inhibition at 100 µM was 1.82%. For CC(C(=O)O)c1ccc2c(c1)[nH]c1ccc(Cl)cc12 (centres unmarked) [Carprofen], the inhibition at 100 µM was 0%. In the case of COc1cc(N)c(Cl)cc1C(=O)N[C@@H]1CCN(CCCOc2ccc(F)cc2)C[C@@H]1OC [Cisapride], the inhibition at 100 µM is reported as 1.02%. In the case of O=C(O)CCC(=O)O [Sodium succinate], the inhibition at 100 µM is reported as 0%. Work on CCCCCCc1ccc(O)cc1O [Hexylresorcinol] yielded an inhibition at 100 µM of 0%. For O=C(OCC(O)CO)c1ccccc1Nc1ccnc2cc(Cl)ccc12 (centres unmarked) [Glafenine HCl], the inhibition at 100 µM was 16.2%. Molecule O=C(O)c1cc(/N=N/c2ccc(S(=O)(=O)Nc3ccccn3)cc2)ccc1O [Sulfasalazine] has an inhibition at 100 µM of 0%. CCS(=O)(=O)N1CC(CC#N)(n2cc(-c3ncnc4[nH]ccc34)cn2)C1 [Baricitinib (LY3009104, INCB028050)] showed an inhibition at 100 µM of 28.1%. Work on C=CC(=O)Nc1cc(Nc2nccc(-c3cn(C)c4ccccc34)n2)c(OC)cc1N(C)CCN(C)C [Osimertinib (AZD9291)] yielded an inhibition at 100 µM of 0%. COC(=O)C1=C(C)NC(C)=C(C(=O)OCCN(C)Cc2ccccc2)C1c1cccc([N+](=O)[O-])c1 (centres unmarked) [Nicardipine] gave an inhibition at 100 µM of 0%. Molecule COc1cc([C@H]2Oc3cc([C@H]4Oc5cc(O)cc(O)c5C(=O)[C@@H]4O)ccc3O[C@@H]2CO)ccc1O [Silibinin] has an inhibition at 100 µM of 0%. Work on C[C@@H]1C[C@H]2[C@@H]3C[C@H](F)C4=CC(=O)C=C[C@]4(C)[C@@]3(F)[C@@H](O)C[C@]2(C)[C@@]1(O)C(=O)CO [Flumethasone] yielded an inhibition at 100 µM of 28.1%. For COc1ccc2c(c1)c(CC(=O)OCC(=O)O)c(C)n2C(=O)c1ccc(Cl)cc1 [Acemetacin], the inhibition at 100 µM was 8.64%. For COC(=O)[C@H](c1ccccc1Cl)N1CCc2sccc2C1 [Clopidogrel], the inhibition at 100 µM was 0%. Work on CC(=O)OCC(=O)[C@@]1(O)CC[C@H]2[C@@H]3CCC4=CC(=O)C=C[C@]4(C)[C@H]3[C@@H](O)C[C@@]21C [Prednisolone Acetate] yielded an inhibition at 100 µM of 15.9%. Molecule CO[C@H]1C[C@@H]2CC[C@@H](C)[C@@](O)(O2)C(=O)C(=O)N2CCCC[C@H]2C(=O)O[C@H]([C@H](C)C[C@@H]2CC[C@@H](O)[C@H](OC)C2)CC(=O)[C@H](C)/C=C(\C)[C@@H](O)[C@@H](OC)C(=O)[C@H](C)C[C@H](C)/C=C/C=C/C=C/1C [Rapamycin (Sirolimus)] has an inhibition at 100 µM of 30.7%. In the case of CC[C@H]1OC(=O)[C@H](C)[C@@H](O[C@H]2C[C@@](C)(OC)[C@@H](O)[C@H](C)O2)[C@H](C)[C@@H](O[C@@H]2O[C@H](C)C[C@H](N(C)C)[C@H]2O)[C@](C)(OC)C[C@@H](C)C(=O)[C@H](C)[C@@H](O)[C@]1(C)O [Clarithromycin], the inhibition at 100 µM is reported as 24.2%. Work on COc1ccc(O)cc1 [Mequinol] yielded an inhibition at 100 µM of 0%. Work on C=CCN1CCCC1CNC(=O)c1cc2nn[nH]c2cc1OC (centres unmarked) [Alizapride HCl] yielded an inhibition at 100 µM of 0%. In the case of CC(CCc1ccc(O)cc1)NCC(O)c1ccc(O)cc1 (centres unmarked) [Ractopamine HCl], the inhibition at 100 µM is reported as 0%.
